Assays:
BRD4 (BD1) = target: T1, BRD4 (BD1) (Homo sapiens, UniProt O60885); assay: Binding assay BRD4/acetylated peptide H4 (TR-FRET protein-protein interaction assay)
T1 construct: with relatively long constructs also being possible, preferably amino acids 44-168; made in house; host or cells: E. coli
How it was run: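 Displacement of biotin-Ac-H4 peptide from His6-tagged BRD4(BD1), final usually 10 nM, read as Eu-streptavidin to anti-His-XL665 TR-FRET (665/620 nm). Compounds tested at 11 doses up to 20 μM in duplicate, pH 7.5 HEPES, 22 °C then 4 °C incubation; IC50 by 4-parameter regression.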

MOLM-13 cells = assay: Cell proliferation assay (alamarBlue), MOLM-13; assay type: cell-based; conditions: Homo sapiens, 96 hours incubation, inhibition of cell proliferation
How it was run: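 IC50 = concentration giving 50% growth inhibition relative to buffer-treated cells, after subtracting baseline fluorescence taken before dosing. Compound applied at 1E-5 to 1E-8 M for 96 h at 37 °C in RPMI1640 with 10% FCS; alamarBlue signal at 530/590 nm.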

SMILES	IC50 (BRD4 (BD1)) [nM]	IC50 (MOLM-13 cells) [nM]
CNC(=O)N1N=C(c2ccc(-c3c(C)noc3C)cc2)c2cc(Cl)c(OC)cc2C[C@H]1C [Example 157.2, (4R)-8-chloro-1-[4-(3,5-dimethylisoxazol-4-yl)phenyl]-7-methoxy-N,4-dimethyl-4,5-dihydro-3H-2,3-benzodiazepine-3-carboxamide]	470	2190
CNC(=O)N1N=C(c2ccc(-c3c(C)noc3C)cc2)c2cc(OC)c(OC(F)F)cc2C[C@@H]1C [Example 162.1, (4S)-7-(difluoromethoxy)-1-[4-(3,5-dimethylisoxazol-4-yl)phenyl]-8-methoxy-N,4-dimethyl-4,5-dihydro-3H-2,3-benzodiazepine-3-carboxamide]	100	210
CNC(=O)N1N=C(c2ccc(-c3c(C)noc3C)cc2)c2cc(OC)c(OC(F)F)cc2C[C@H]1C [Example 162.2, (4R)-7-(difluoromethoxy)-1-[4-(3,5-dimethylisoxazol-4-yl)phenyl]-8-methoxy-N,4-dimethyl-4,5-dihydro-3H-2,3-benzodiazepine-3-carboxamide]	560	1680
CNC(=O)N1N=C(c2ccc(N3CCN(C)CC3)cc2)c2cc(OC)c(OC(F)F)cc2C[C@H]1C [Example 163.1, (4R)-7-(difluoromethoxy)-8-methoxy-N,4-dimethyl-1-[4-(4-methylpiperazin-1-yl)phenyl]-4,5-dihydro-3H-2,3-benzodiazepine-3-carboxamide]	8940	7080
CNC(=O)N1N=C(c2ccc(Cl)cc2)c2cc(OCCCN3CCN(C)CC3)ccc2C[C@@H]1C [Example 164.2, (4S)-1-(4-chlorophenyl)-N,4-dimethyl-8-[3-(4-methylpiperazin-1-yl)propoxy]-4,5-dihydro-3H-2,3-benzodiazepine-3-carboxamide]	60	420
CNC(=O)N1N=C(c2ccc(-c3c(C)noc3C)cc2)c2cc(N3CCOCC3)ccc2C[C@H]1C [Example 176.1, (4R)-1-[4-(3,5-Dimethylisoxazol-4-yl)phenyl]-N,4-dimethyl-8-(morpholin-4-yl)-4,5-dihydro-3H-2,3-benzodiazepine-3-carboxamide]	730	2190
CNC(=O)N1N=C(c2ccc(-c3c(C)noc3C)cc2)c2cc(N3CCOCC3)ccc2C[C@@H]1C [Example 176.2, (4S)-1-[4-(3,5-Dimethylisoxazol-4-yl)phenyl]-N,4-dimethyl-8-(morpholin-4-yl)-4,5-dihydro-3H-2,3-benzodiazepine-3-carboxamide]	40	250
CNC(=O)N1N=C(c2ccc(N3CCOCC3=O)cc2)c2cc(OC)ccc2C[C@@H]1C [Example 177, (4S)-8-Methoxy-N,4-dimethyl-1-[4-(3-oxomorpholin-4-yl)phenyl]-4,5-dihydro-3H-2,3-benzodiazepine-3-carboxamide]	70	490
CC[C@H]1Cc2cc(OC)c(OC)cc2C(c2ccc(N3CCN(S(C)(=O)=O)CC3)cc2)=NN1C(=O)NC [Example 203.1, (4S)-4-ethyl-7,8-dimethoxy-N-methyl-1-{4-[4-(methylsulphonyl)piperazin-1-yl]phenyl}-4,5-dihydro-3H-2,3-benzodiazepine-3-carboxamide]	260	1270

The next lines start with the values.

IC50 (BRD4 (BD1)) [nM]	IC50 (MOLM-13 cells) [nM]	SMILES
30	260	CNC(=O)N1N=C(c2ccc(N3CCN(C)CC3)cc2)c2cc(OC)c(OC(F)F)cc2C[C@@H]1C [Example 163.2, (4S)-7-(difluoromethoxy)-8-methoxy-N,4-dimethyl-1-[4-(4-methylpiperazin-1-yl)phenyl]-4,5-dihydro-3H-2,3-benzodiazepine-3-carboxamide]
40	80	CNC(=O)N1N=C(c2ccc(N3CCC(OC)CC3)cc2)c2cc(OC)c(OC)cc2C[C@@H]1C [Example 179.2, (4S)-7,8-dimethoxy-1-[4-(4-methoxypiperidin-1-yl)phenyl]-N,4-dimethyl-4,5-dihydro-3H-2,3-benzodiazepine-3-carboxamide]
390	2700	CNC(=O)N1N=C(c2ccc(N3CCC(N(C)C)CC3)cc2)c2cc(OC)c(OC)cc2C[C@H]1C [Example 180.1, (4R)-1-{4-[4-(dimethylamino)piperidin-1-yl]phenyl}-7,8-dimethoxy-N,4-dimethyl-4,5-dihydro-3H-2,3-benzodiazepine-3-carboxamide]
60	50	CNC(=O)N1N=C(c2ccc(N3CCC(N(C)C)CC3)cc2)c2cc(OC)c(OC)cc2C[C@@H]1C [Example 180.2, (4S)-1-{4-[4-(dimethylamino)piperidin-1-yl]phenyl}-7,8-dimethoxy-N,4-dimethyl-4,5-dihydro-3H-2,3-benzodiazepine-3-carboxamide]
30	100	CNC(=O)N1N=C(c2ccc(N3CC(C)(O)C3)cc2)c2cc(OC)c(OC)cc2C[C@@H]1C [Example 185.2, (4S)-1-[4-(3-hydroxy-3-methylazetidin-1-yl)phenyl]-7,8-dimethoxy-N,4-dimethyl-4,5-dihydro-3H-2,3-benzodiazepine-3-carboxamide]
270	1130	CNC(=O)N1N=C(c2ccc(N3CCC(C)(O)CC3)cc2)c2cc(OC)c(OC)cc2C[C@H]1C [Example 188.1, (4R)-1-[4-(4-hydroxy-4-methylpiperidin-1-yl)phenyl]-7,8-dimethoxy-N,4-dimethyl-4,5-dihydro-3H-2,3-benzodiazepine-3-carboxamide]
30	70	CNC(=O)N1N=C(c2ccc(N3CCC(C)(O)CC3)cc2)c2cc(OC)c(OC)cc2C[C@@H]1C [Example 188.2, (4S)-1-[4-(4-hydroxy-4-methylpiperidin-1-yl)phenyl]-7,8-dimethoxy-N,4-dimethyl-4,5-dihydro-3H-2,3-benzodiazepine-3-carboxamide]
710	1990	CC[C@H]1Cc2cc(OC)c(OC)cc2C(c2ccc(N3CCN(C)CC3)cc2)=NN1C(=O)NC [Example 201.1, (4S)-4-ethyl-7,8-dimethoxy-N-methyl-1-[4-(4-methylpiperazin-1-yl)phenyl]-4,5-dihydro-3H-2,3-benzodiazepine-3-carboxamide]
640	580	CC[C@H]1Cc2cc(OC)c(OC)cc2C(c2ccc(N3CCNCC3)cc2)=NN1C(=O)NC [Example 202.1, (4S)-4-ethyl-7,8-dimethoxy-N-methyl-1-[4-(piperazin-1-yl)phenyl]-4,5-dihydro-3H-2,3-benzodiazepine-3-carboxamide]
370	190	CC[C@H]1Cc2cc(OC)c(OC)cc2C(c2ccc(N3CCOCC3)cc2)=NN1C(=O)NC [Example 209, (4S)-4-ethyl-7,8-dimethoxy-N-methyl-1-[4-(morpholin-4-yl)phenyl]-4,5-dihydro-3H-2,3-benzodiazepine-3-carboxamide]
70	140	CNC(=O)N1N=C(c2ccc(N3CCCN(C)CC3=O)cc2)c2cc(OC)c(OC)cc2C[C@@H]1C [Example 229, (4S)-7,8-dimethoxy-N,4-dimethyl-1-[4-(4-methyl-2-oxo-1,4-diazepan-1-yl)phenyl]-4,5-dihydro-3H-2,3-benzodiazepine-3-carboxamide]
